What all share (assay type): cell-based
For test [1], the target named is T1, Trpv4_v1 (Sparus aurata, UniProt A0A671Y4W2).
T1 construct: gene trpv4; full-length cDNA from testis in pT7Ts; cRNA expressed alone in Xenopus laevis oocytes; calculated monomer 99 kDa
T1 sequence (A0A671Y4W2 1-876): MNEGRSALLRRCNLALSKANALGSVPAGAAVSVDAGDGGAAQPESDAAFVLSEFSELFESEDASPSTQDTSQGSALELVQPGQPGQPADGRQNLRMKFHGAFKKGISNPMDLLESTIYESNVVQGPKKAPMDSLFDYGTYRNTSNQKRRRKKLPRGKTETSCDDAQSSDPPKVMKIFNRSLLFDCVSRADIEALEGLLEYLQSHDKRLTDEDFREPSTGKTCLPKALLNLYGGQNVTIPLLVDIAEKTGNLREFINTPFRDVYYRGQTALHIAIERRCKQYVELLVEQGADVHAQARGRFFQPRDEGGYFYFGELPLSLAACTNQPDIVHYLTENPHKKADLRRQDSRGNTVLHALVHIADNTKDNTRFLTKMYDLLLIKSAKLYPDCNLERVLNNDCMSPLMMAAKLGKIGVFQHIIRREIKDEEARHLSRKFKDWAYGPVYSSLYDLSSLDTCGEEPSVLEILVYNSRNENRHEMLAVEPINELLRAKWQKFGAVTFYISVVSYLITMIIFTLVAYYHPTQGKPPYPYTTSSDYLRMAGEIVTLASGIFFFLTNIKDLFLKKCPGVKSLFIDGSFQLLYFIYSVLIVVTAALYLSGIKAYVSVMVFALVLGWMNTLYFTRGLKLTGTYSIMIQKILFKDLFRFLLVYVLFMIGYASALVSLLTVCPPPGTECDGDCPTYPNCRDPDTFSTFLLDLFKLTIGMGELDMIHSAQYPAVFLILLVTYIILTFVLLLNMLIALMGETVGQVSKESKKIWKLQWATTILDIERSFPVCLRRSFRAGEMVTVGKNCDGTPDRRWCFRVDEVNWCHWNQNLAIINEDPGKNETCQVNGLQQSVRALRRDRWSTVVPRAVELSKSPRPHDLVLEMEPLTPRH
As to the kind of experiment: two-electrode voltage clamp in Xenopus oocytes, constitutive current at -85 mV.

Test [2] has as its target T2, Trpv4_v10 (Sparus aurata, UniProt A0A671Y517).
T2 construct: gene trpv4; synthesized full-length splice-variant cDNA in pT7Ts; cRNA expressed alone in Xenopus laevis oocytes; divergent N-terminus
T2 sequence (A0A671Y517 1-877): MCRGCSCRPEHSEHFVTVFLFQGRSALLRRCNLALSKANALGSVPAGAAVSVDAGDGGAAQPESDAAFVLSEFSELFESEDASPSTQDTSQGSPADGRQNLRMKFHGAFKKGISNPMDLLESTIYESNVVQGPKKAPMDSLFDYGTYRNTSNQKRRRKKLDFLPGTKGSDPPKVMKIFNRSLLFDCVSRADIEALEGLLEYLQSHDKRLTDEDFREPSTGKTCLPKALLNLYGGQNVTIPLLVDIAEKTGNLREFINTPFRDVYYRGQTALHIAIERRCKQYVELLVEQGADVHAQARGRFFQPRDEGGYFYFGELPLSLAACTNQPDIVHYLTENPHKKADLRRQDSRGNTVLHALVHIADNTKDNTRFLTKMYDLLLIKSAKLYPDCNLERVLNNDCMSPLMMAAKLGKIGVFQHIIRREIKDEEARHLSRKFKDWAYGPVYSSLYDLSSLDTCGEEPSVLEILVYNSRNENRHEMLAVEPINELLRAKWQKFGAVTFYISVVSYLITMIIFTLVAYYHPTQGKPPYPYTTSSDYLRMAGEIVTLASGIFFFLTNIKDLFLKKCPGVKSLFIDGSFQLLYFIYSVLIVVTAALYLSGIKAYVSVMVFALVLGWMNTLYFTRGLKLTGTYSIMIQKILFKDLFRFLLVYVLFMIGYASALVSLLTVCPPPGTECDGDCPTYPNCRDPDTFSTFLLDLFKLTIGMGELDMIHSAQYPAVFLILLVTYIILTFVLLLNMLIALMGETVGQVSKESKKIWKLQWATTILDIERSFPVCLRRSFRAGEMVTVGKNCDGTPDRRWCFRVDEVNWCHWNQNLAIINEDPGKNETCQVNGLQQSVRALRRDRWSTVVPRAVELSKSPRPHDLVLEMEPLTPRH
The test is described as above.

In test [3] the target is T3, Aqp4a-M43 (Sparus aurata, UniProt A0A678R2D9).
T3 construct: gene Aqp4; short isoform starting at Met-43, 31 kDa; cRNA expressed in Xenopus laevis oocytes
T3 sequence (A0A678R2D9 entry or part of it): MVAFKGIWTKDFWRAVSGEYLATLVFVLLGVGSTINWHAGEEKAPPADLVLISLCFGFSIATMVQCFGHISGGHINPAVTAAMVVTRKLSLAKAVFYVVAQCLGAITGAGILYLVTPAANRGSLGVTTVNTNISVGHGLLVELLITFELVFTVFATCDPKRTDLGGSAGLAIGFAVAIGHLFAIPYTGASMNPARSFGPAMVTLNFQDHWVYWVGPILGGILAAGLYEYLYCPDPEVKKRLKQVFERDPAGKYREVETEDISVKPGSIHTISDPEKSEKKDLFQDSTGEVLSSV
As to the kind of experiment: oocyte swelling assay (osmotic water permeability Lp). The settings on record: 5 min pretreatment, hyposmotic challenge -100 mOsm, pH 7.4.

Where [4] appears, read: 5 min exposure, isosmotic 220 mOsm, pH 7.4, room temperature.

Turning to `Cc1c(C(=O)Nc2cccc(C(F)(F)F)c2)cc(-c2ccccc2)n1CCCN1CCOCC1` [HC-067047], the inhibition at 10 µM in test [1] and in test [2] was roughly 8% in each case.
Regarding `CC(C)NCCN(C(C)C)S(=O)(=O)c1ccc(Cl)cc1Cl` [RN-1734], the inhibition at 100 µM was roughly 40% in test [1] and roughly 9% in test [2].
As to `O=C(Nc1nncs1)c1cccnc1` [TGN-020, 2-(Nicotinamide)-1,3,4-thiadiazole], the “% reduction of Lp at 20 μM” value in test [3] was ~ 82%.
For the compound `N.N.N.N.N.N.N.N.N.N.N.N.N.N.[Cl-].[Cl-].[Cl-].[Cl-].[Cl-].[Cl-].[O-2].[O-2].[Ru+3].[Ru+3].[Ru+4]` [ruthenium red], the “% inhibition at 10 μM” value in test [1] (setting [4]) is ~ 28%; in test [2] (setting [4]), ~ 5%.
